Source: patent EP2608671B1, “COMPOUNDS FOR TREATMENT OF CANCER” (Gtx, Inc., priority 2010, dated 2012)
Read-outs that look alike come from different tables or passages of the source.

Tests used:
PC-3 = test: cells; conditions: Homo sapiens
Description: (§1) The only compounds which belong to the invention are the ones falling under the scope of formula (XI).
Cells were stained with SRB solution.
Cells. […] Cells between the third and fifth passages were used for experiments.
Cell growth inhibition studies. […] Cells were stained with sulphorhodamine B (SRB) solution.

[1] = test system: melanoma cell lines (A375, WM-164, B16-F1) and prostate cancer cell lines (LNCaP, DU 145, PC-3, PPC-1); test: SRB cytotoxicity, melanoma and prostate cell panel (averages); assay type: cell-based
Description: as §1

DU 145 = test: cells; conditions: Homo sapiens
LNCaP = test: cells; conditions: Homo sapiens
PPC-1 = test: cells; conditions: Homo sapiens
B16-F1 = test: SRB cell growth inhibition (cytotoxicity) assay; assay type: cell-based, mouse; conditions: Mus musculus
Description: as §1

WM-164 = test: SRB cell growth inhibition (cytotoxicity) assay; assay type: cell-based, human; conditions: Homo sapiens
A375 = test: SRB cell growth inhibition (cytotoxicity) assay; assay type: cell-based, human; conditions: Homo sapiens
[2] = PC-3, 96 h, read-out: IC50 ± SEM (nM), PC-3
[3] = Prostate cell, read-out: IC50 (average over cell lines)
[4] = DU-145, 96 h, read-out: IC50 ± SEM (nM) Du 145
[5] = 96 h, read-out: IC50 ± SEM (nM), LNCaP
[6] = PPC-1, 96 h, read-out: IC50 ± SEM (nM), PPC-1
[7] = B16-F1, read-out: IC50 (nM), B16-F1
[8] = A-375, read-out: IC50 (nM), A375
[9] = WM164, read-out: IC50 (nM), WM164
[10] = PC-3, read-out: IC50 (nM), PC-3
[11] = DU-145, read-out: IC50 (nM), DU 145
[12] = PPC-1, read-out: IC50 (nM), PPC-1
[13] = B16-F1, Table 6A, read-out: IC50 (nM), B16-F1
[14] = A-375, Table 6A, read-out: IC50 (nM), A375
[15] = WM164, Table 6A, read-out: IC50 (nM), WM164

Compound | IC50 (PC-3; [2]) [nM] | IC50 [1, 3] [µM] | IC50 (DU 145; [4]) [nM] | IC50 (LNCaP; [5]) [nM] | IC50 (PPC-1; [6]) [nM] | IC50 (PC-3; [10]) [nM] | IC50 (DU 145; [11]) [nM] | IC50 (LNCaP; read-out: IC50 (nM), LNCaP) [nM] | IC50 (PPC-1; [12]) [nM] | IC50 (B16-F1; [13]) [nM] | IC50 (A375; [14]) [nM] | IC50 (WM-164; [15]) [nM] | also measured
COc1cc(C(=O)c2c[nH]c(-c3cc(OC)c(OC)c(OC)c3)n2)cc(OC)c1OC [12ea, (3,4,5-trimethoxyphenyl)(2-(3,4,5-trimethoxyphenyl)-1H-imidazol-4-yl)methanone] | > 10000 | > 10 | > 10000 | > 10000 | > 10000 | – | – | – | – | – | – | – | –
COc1cc(-c2nc(C(=O)c3ccc(F)cc3)c[nH]2)cc(OC)c1OC [12eb, (4-fluorophenyl)(2-(3,4,5-trimethoxyphenyl)-1H-imidazol-4-yl)methanone] | > 10000 | > 10 | > 10000 | > 10000 | > 10000 | – | – | – | – | – | – | – | –
COc1ccc(-c2nc(C(=O)c3cc(OC)c(OC)c(OC)c3)c[nH]2)cc1OC [12ha, (2-(3,4-dimethoxyphenyl)-1H-imidazol-4-yl)(3,4,5-trimethoxyphenyl)methanone] | – | – | – | – | – | – | – | – | – | – | – | – | IC50 (B16-F1; B16-F1, 48 h, read-out: IC50 ± SEM (nM) B16-F1): 1400 ± 200 nM; IC50 (WM-164; WM164, 48 h, read-out: IC50 ± SEM (nM) WM164): 191 ± 18 nM; IC50 ([1]; ABI compounds, Tables 11-13, read-out: IC50 (average over cell lines)): 0.33 µM
O=C(c1ccc(F)cc1)c1c[nH]c(-c2ccccc2C(F)(F)F)n1 [12ib, (4-fluorophenyl)(2-(2-(trifluoromethyl)phenyl)-1 H-imidazol-4-yl)methanone] | > 10000 | > 10 | > 10000 | > 10000 | > 10000 | – | – | – | – | – | – | – | IC50 (B16-F1; B16-F1 melanoma cells, 48 h, SRB, read-out: IC50 ± SEM (nM) B16-F1): > 10000 nM; IC50 (A375; A-375, A375 melanoma cells, 48 h, SRB, read-out: IC50 ± SEM (nM) A375): > 10000 nM; IC50 (WM-164; WM164 melanoma cells, 48 h, SRB, read-out: IC50 ± SEM (nM) WM164): > 10000 nM
O=C(c1cc(O)c(O)c(O)c1)c1c[nH]c(-c2ccc(Cl)cc2)n1 [13fa, (2-(4-chlorophenyl)-1H-imidazol-4-yl)(3,4,5-trihydroxyphenyl)methanone] | 10000 | 3.89 | 10000 | 10000 | > 10000 | – | – | – | – | – | – | – | –
COc1cc(C(=O)c2c[nH]c(-c3ccc4[nH]c(C(=O)c5cc(OC)c(OC)c(OC)c5)cc4c3)n2)cc(OC)c1OC [15xaa, (5-(4-(3,4,5-Trimethoxybenzoyl)-1H-imidazol-2-yl)-1H-indol-2-yl)(3,4,5-trimethoxyphenyl)methanone] | – | – | – | – | – | 2630 | 5920 | 1070 | 4580 | – | – | – | IC50 (B16-F1; [7]): 1390 nM; IC50 (A375; [8]): 1800 nM; IC50 (WM-164; [9]): 1700 nM
COc1cc(C(=O)c2cn(S(=O)(=O)c3ccccc3)c(-c3ccc4c(c3)cc(C(=O)c3cc(OC)c(OC)c(OC)c3)n4S(=O)(=O)c3ccccc3)n2)cc(OC)c1OC [16xaa, (1-(Phenylsulfonyl)-2-(1-(phenylsulfonyl)-2-(3,4,5-trimethoxybenzoyl)-1H-indol-5-yl)-1H-imidazol-4-yl)(3,4,5-trimethoxyphenyl)methanone] | – | – | – | – | – | > 10000 | > 10000 | > 10000 | > 10000 | – | – | – | IC50 (B16-F1; [7]): > 10000 nM; IC50 (A375; [8]): > 10000 nM; IC50 (WM-164; [9]): > 10000 nM
O=C(c1csc(-c2cc3ccccc3[nH]2)n1)c1cc2ccccc2[nH]1 [compound 8, (2-(1H-Indol-2-yl)thiazol-4-yl)(1H-indol-2-yl)methanone] | – | – | – | – | – | 704 | 580 | 346 | 230 | 570 | 318 | 404 | –
O=C(c1ccc2[nH]ccc2c1)c1csc(-c2cc3ccccc3[nH]2)n1 [compound 21, (2-(1H-indol-2-yl)thiazol-4-yl)(1H-indol-5-yl)methanone] | – | – | – | – | – | 403 | 435 | 314 | 216 | 924 | 383 | 408 | IC50 ([1]; Prostate cell, summary of Tables 2, 3, 21, read-out: IC50 range over tested melanoma and prostate cell lines): 0.076 to 0.116 µM
COc1cc(C(=NC#N)c2csc(-c3ccccc3)n2)cc(OC)c1O [compound 32, N-((4-hydroxy-3,5-dimethoxyphenyl)(2-phenylthiazol-4-yl)methylene)cyanamide] | – | – | – | – | – | 2290 | 4600 | 1660 | 1170 | > 10000 | 2700 | 2600 | –
